# Data from patent US10160755B2 (Plexxikon Inc., priority 2015, dated 2018).
# Target: T1, BA/F3-FLT3-ITD + F691L cells (Homo sapiens, UniProt P36888, F691L, cells depend on it, form not given)
# T1 sequence (P36888 1-993 F691L): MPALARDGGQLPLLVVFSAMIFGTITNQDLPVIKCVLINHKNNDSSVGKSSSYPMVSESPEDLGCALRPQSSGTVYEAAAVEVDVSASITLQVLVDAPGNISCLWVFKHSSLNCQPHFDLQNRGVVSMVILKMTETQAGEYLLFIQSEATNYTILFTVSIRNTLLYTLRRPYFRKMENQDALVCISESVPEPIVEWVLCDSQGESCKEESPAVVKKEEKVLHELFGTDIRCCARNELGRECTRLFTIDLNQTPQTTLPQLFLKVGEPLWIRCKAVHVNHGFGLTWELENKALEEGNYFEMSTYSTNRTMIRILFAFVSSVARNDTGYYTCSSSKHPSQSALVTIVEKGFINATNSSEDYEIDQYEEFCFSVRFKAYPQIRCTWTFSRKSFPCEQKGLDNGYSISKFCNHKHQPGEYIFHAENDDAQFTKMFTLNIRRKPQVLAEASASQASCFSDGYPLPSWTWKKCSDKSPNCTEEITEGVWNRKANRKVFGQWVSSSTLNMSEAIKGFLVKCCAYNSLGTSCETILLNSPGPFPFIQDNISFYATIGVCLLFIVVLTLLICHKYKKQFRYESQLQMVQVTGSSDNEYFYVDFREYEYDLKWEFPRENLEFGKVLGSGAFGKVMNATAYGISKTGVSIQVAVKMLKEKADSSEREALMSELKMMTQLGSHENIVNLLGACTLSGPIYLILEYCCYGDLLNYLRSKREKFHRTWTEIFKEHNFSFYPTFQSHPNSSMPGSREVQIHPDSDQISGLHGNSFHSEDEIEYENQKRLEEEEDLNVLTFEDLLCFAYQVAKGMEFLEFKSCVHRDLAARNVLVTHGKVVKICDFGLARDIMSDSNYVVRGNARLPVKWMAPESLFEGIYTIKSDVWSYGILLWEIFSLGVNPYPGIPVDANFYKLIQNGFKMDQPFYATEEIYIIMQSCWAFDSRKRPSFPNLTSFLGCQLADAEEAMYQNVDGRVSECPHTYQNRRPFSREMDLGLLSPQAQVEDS
# Assay: BA/F3-FLT3-ITD + F691L cell proliferation assay (CellTiter-Glo)
# Format: cell-based, murine
# Settings: BaF3 FLT3 ITD/F691L cells; read-out: Cell Activity (IC50 μM) BaF3_FLT3_ITD/F691L
# Text: The FLT3 inhibitors may also be assessed using leukemia cell lines that express endogenous FLT3-ITD or cells that are engineered to express wild-type or mutant FLT3. The cells expressing endogenous FLT3 are dependent upon FLT3 catalytic activity for growth. For the engineered cells, murine BA/F3 cells were transfected with full-length FLT3 (either wild-type, or containing the ITD, D835Y, or F691L mutations, as noted). The parental BA/F3 cells are dependent upon Interleukin-3 (IL-3) for survival, and introduction of the FLT3 constructs renders these cells dependent upon FLT3 kinase activity when cultured in the absence of IL-3. Engineered BA/F3 cell growth assays can be performed in either the absence or presence of IL-3, to assess the compound inhibition of FLT3 or to detect the presence of off-target activity, respectively. Inhibitors of FLT3 kinase activity reduce or eliminate the FLT3 oncogenic signaling, resulting in reduced cell proliferation. This inhibition is measured as a function of compound concentration to assess IC50 values.
# Cells were seeded at 1×10^4 cells per well of a 96 well cell culture plate in 50 μl of cell culture medium. Compounds were dissolved in DMSO, typically at a concentration of 5 mM and were serially diluted 1:3 for a total of eight points and added to the cells to final concentrations of 10, 3.3, 1.1, 0.37, 0.12, 0.041, 0.014 and 0.0046 μM in 100 μl cell culture medium (final concentration 0.2% DMSO). […] The cells were incubated at 37° C., 5% CO2 for three days. CellTiter-Glo Buffer (Promega Cell Viability Assay catalog #G7573) and substrate were equilibrated to room temperature, and enzyme/substrate Recombinant Firefly Luciferase/Beetle Luciferin was reconstituted. The cell plates were equilibrated to room temperature for 30 minutes, then lysed by addition of an equivalent volume of the Celltiter-Glo Reagent. The plate was mixed for 10 minutes on a plate shaker to lyse the cells. The plates were read on a Tecan M1000 using Luminescence protocol modified to read 0.1 s per well. The luminescence reading assesses the ATP content, which correlates directly with cell number such that the reading as a function of compound concentration was used to determine the IC50 value.
row,GI50,Compound
1,0.0001 to 1 µM,"O=S(=O)(c1cccc(-c2cnc3[nH]cc(-c4ccc5ncn(C6CCCNC6)c5c4)c3n2)c1)N1CCCC1 (centres unmarked) [P-237, 7-[3-(3-piperidyl)benzimidazol-5-yl]-2-(3-pyrrolidin-1-ylsulfonylphenyl)-5H-pyrrolo[2,3-b]pyrazine]"
2,0.0001 to 1 µM,"c1cc(N2CCOCC2)ccc1-c1cnc2[nH]cc(-c3ccc4ncn(C5CCCNC5)c4c3)c2n1 (centres unmarked) [P-101, 4-[4-[7-[3-(3-piperidyl)benzimidazol-5-yl]-5H-pyrrolo[2,3-b]pyrazin-2-yl]phenyl]morpholine]"
3,0.0001 to 1 µM,"N#Cc1cc(-c2cnc3[nH]cc(-c4ccc5ncn(C6CCCNC6)c5c4)c3n2)ccc1F (centres unmarked) [P-238, 2-fluoro-5-[7-[3-(3-piperidyl)benzimidazol-5-yl]-5H-pyrrolo[2,3-b]pyrazin-2-yl]benzonitrile]"
4,0.0001 to 1 µM,"COc1cc(-c2cnc3[nH]cc(-c4ccc5ncn([C@@H]6CCCNC6)c5c4)c3n2)ccn1 [P-254, 2-(2-methoxy-4-pyridyl)-7-[3-[(3R)-3-piperidyl]benzimidazol-5-yl]-5H-pyrrolo[2,3-b]pyrazine]"
5,1 to 10 µM,"N#Cc1cccc(NC(=O)c2cnc3[nH]cc(-c4ccc5ncn(C6CCCNC6)c5c4)c3c2)c1 (centres unmarked) [P-219, N-(3-cyanophenyl)-3-(1-(piperidin-3-yl)-1H-benzo[d]imidazol-6-yl)-1H-pyrrolo[2,3-b]pyridine-5-carboxamide]"
6,0.0001 to 1 µM,"CC(C)(C)n1cnc2ccc(-c3c[nH]c4ncc(-c5cccc(S(=O)(=O)N6CCCC6)c5)cc34)cc21 [P-220, 1-tert-butyl-6-[5-(3-pyrrolidin-1-ylsulfonylphenyl)-1H-pyrrolo[2,3-b]pyridin-3-yl]benzimidazole]"
7,0.0001 to 1 µM,"CC(C)(C)n1cnc2ccc(-c3c[nH]c4ncc(-c5cccc(N6CCCCS6(=O)=O)c5)cc34)cc21 [P-221, 2-[3-[3-(3-tert-butylbenzimidazol-5-yl)-1H-pyrrolo[2,3-b]pyridin-5-yl]phenyl]thiazinane 1,1-dioxide]"
8,1 to 10 µM,"FC(F)(F)Oc1cccc(C#Cc2cnc3[nH]cc(-c4ccc5ncn(C6CCCNC6)c5c4)c3n2)c1 (centres unmarked) [P-246, 7-[3-(3-piperidyl)benzimidazol-5-yl]-2-[2-[3-(trifluoromethoxy)phenyl]ethynyl]-5H-pyrrolo[2,3-b]pyrazine]"
9,0.0001 to 1 µM,"N#Cc1cccc(C(=O)Nc2cnc3[nH]cc(-c4ccc5ncn(C6CCCNC6)c5c4)c3c2)c1 (centres unmarked) [P-236, 3-cyano-N-[3-[3-(3-piperidyl)benzimidazol-5-yl]-1H-pyrrolo[2,3-b]pyridin-5-yl]benzamide]"
10,0.0001 to 1 µM,"O=S(=O)(c1cccc(-c2cnc3[nH]cc(-c4ccc5ncn(C6CCCNC6)c5c4)c3c2)c1)N1CCCC1 (centres unmarked) [P-222, 1-(3-piperidyl)-6-[5-(3-pyrrolidin-1-ylsulfonylphenyl)-1H-pyrrolo[2,3-b]pyridin-3-yl]benzimidazole]"
11,0.0001 to 1 µM,"N#Cc1cccc(C#Cc2cnc3[nH]cc(-c4ccc5ncn(C6CCCNC6)c5c4)c3c2)c1 (centres unmarked) [P-243, 3-[2-[3-[3-(3-piperidyl)benzimidazol-5-yl]-1H-pyrrolo[2,3-b]pyridin-5-yl]ethynyl]benzonitrile]"

# Continued, compound first:
row,Compound,GI50
1,"CC(C)(C)n1cnc2ccc(-c3c[nH]c4ncc(-c5cccc(N6CCOCC6)c5)nc34)cc21 [P-226, 4-[3-[7-(3-tert-butylbenzimidazol-5-yl)-5H-pyrrolo[2,3-b]pyrazin-2-yl]phenyl]morpholine]",0.0001 to 1 µM
2,"CC(C)(C)n1cnc2ccc(-c3c[nH]c4ncc(-c5cnn(CC(F)(F)F)c5)nc34)cc21 [P-256, 7-(3-tert-butylbenzimidazol-5-yl)-2-[1-(2,2,2-trifluoroethyl)pyrazol-4-yl]-5H-pyrrolo[2,3-b]pyrazine]",0.0001 to 1 µM
3,"Cn1cnc2ccc(-c3c[nH]c4ncc(-c5cnn(CC(F)(F)F)c5)cc34)cc21 [P-175, 1-methyl-6-[5-[1-(2,2,2-trifluoroethyl)pyrazol-4-yl]-1H-pyrrolo[2,3-b]pyridin-3-yl]benzimidazole]",0.0001 to 1 µM
4,"COc1cnc2[nH]cc(-c3cnc4ncn(Cc5cc(C)on5)c4c3)c2c1 [P-144, 3-[[6-(5-methoxy-1H-pyrrolo[2,3-b]pyridin-3-yl)imidazo[4,5-b]pyridin-1-yl]methyl]-5-methyl-isoxazole]",0.0001 to 1 µM
5,"COc1cnc2[nH]cc(-c3ccc4ncn(-c5cccc(Cl)c5)c4c3)c2c1 [P-105, 1-(3-chlorophenyl)-6-(5-methoxy-1H-pyrrolo[2,3-b]pyridin-3-yl)benzimidazole]",0.0001 to 1 µM
6,"FC(F)n1cc(-c2cnc3[nH]cc(-c4ccc5ncn(C6CCCNC6)c5c4)c3n2)cn1 (centres unmarked) [P-257, 2-[1-(difluoromethyl)pyrazol-4-yl]-7-[3-(3-piperidyl)benzimidazol-5-yl]-5H-pyrrolo[2,3-b]pyrazine]",0.0001 to 1 µM
7,"CC(C)(C)n1cnc2ccc(-c3c[nH]c4ncc(C#Cc5cccc(OC(F)(F)F)c5)nc34)cc21 [P-249, 7-(3-tert-butylbenzimidazol-5-yl)-2-[2-[3-(trifluoromethoxy)phenyl]ethynyl]-5H-pyrrolo[2,3-b]pyrazine]",1 to 10 µM
8,"C#Cc1cnc2[nH]cc(-c3ccc4ncn(C(C)(C)C)c4c3)c2n1 [P-259, 7-(3-tert-butylbenzimidazol-5-yl)-2-ethynyl-5H-pyrrolo[2,3-b]pyrazine]",0.0001 to 1 µM
9,"CC(C)(C)n1cnc2ccc(-c3c[nH]c4ncc(-c5cccc(N6CCCCS6(=O)=O)c5)nc34)cc21 [P-227, 2-[3-[7-(3-tert-butylbenzimidazol-5-yl)-5H-pyrrolo[2,3-b]pyrazin-2-yl]phenyl]thiazinane 1,1-dioxide]",0.0001 to 1 µM
10,"CC(C)(C)n1cnc2ccc(-c3c[nH]c4ncc(-c5cnn(C(F)F)c5)cc34)cc21 [P-251, 1-tert-butyl-6-[5-[1-(difluoromethyl)pyrazol-4-yl]-1H-pyrrolo[2,3-b]pyridin-3-yl]benzimidazole]",0.0001 to 1 µM
11,"COc1ncc(-c2cnc3[nH]cc(-c4ccc5ncn(C(C)(C)C)c5c4)c3c2)cn1 [P-265, 1-(tert-butyl)-6-(5-(2-methoxypyrimidin-5-yl)-1H-pyrrolo[2,3-b]pyridin-3-yl)-1H-benzo[d]imidazole]",0.0001 to 1 µM
12,"COc1cc(-c2cnc3[nH]cc(-c4ccc5ncn(C(C)(C)C)c5c4)c3c2)ccn1 [P-106, 1-tert-butyl-6-[5-(2-methoxy-4-pyridyl)-1H-pyrrolo[2,3-b]pyridin-3-yl]benzimidazole]",0.0001 to 1 µM
13,"CC(C)(C)n1cnc2ccc(-c3c[nH]c4ncc(-c5cnn(CC(F)(F)F)c5)cc34)cc21 [P-252, 1-tert-butyl-6-[5-[1-(2,2,2-trifluoroethyl)pyrazol-4-yl]-1H-pyrrolo[2,3-b]pyridin-3-yl]benzimidazole]",0.0001 to 1 µM
14,"FC(F)(F)Cn1cc(-c2cnc3[nH]cc(-c4ccc5ncn(C6CCCNC6)c5c4)c3n2)cn1 (centres unmarked) [P-258, 7-[3-(3-piperidyl)benzimidazol-5-yl]-2-[1-(2,2,2-trifluoroethyl)pyrazol-4-yl]-5H-pyrrolo[2,3-b]pyrazine]",0.0001 to 1 µM
15,"COc1ncc(-c2cnc3[nH]cc(-c4ccc5ncn(C(C)C)c5c4)c3c2)cn1 [P-269, 1-isopropyl-6-[5-(2-methoxypyrimidin-5-yl)-1H-pyrrolo[2,3-b]pyridin-3-yl]benzimidazole]",0.0001 to 1 µM
